# Data reported in patent US20210138025A1, “CATIONIC PEPTIDES WITH IMMUNOMODULATORY AND/OR ANTI-BIOFILM ACTIVITIES” (priority 2018, published 2021).
# Non-standard residues stand in square brackets, D forms with d. No end group written: not given here.
# Tests used:
# [1] = test system: S. aureus (methicillin resistant clinical isolate C623); assay: Biofilm inhibition, static microtitre plate assay, crystal violet (Table 17; FIG. 19); details: 10% tryptic soy broth with 0.1% glucose
# E. coli O157:H7 = assay: Biofilm inhibition, static microtitre plate assay, crystal violet (Table 17); details: BM2 minimal media
# [2] = test system: Salmonella typhimurium (ATCC 14028); assay: as above; details: BM2 minimal media
# P. aeruginosa (PAO1) = assay: Biofilm inhibition, static microtitre plate assay, crystal violet (Table 17; FIG. 19); details: BM2 minimal media
# [3] = test system: Streptococcus agalactiae (Sa); assay type: cell-based
# Method: (§1) The same strains as in Table 18 were assessed for Minimal Biofilm Inhibitory Concentrations (MBIC) (Table 19). Italics=excellent activity (less than or equal to 4 μg/ml). ND=Not determined. Peptides 3013, 3015 and 3016 inhibited biofilm growth in the largest number of bacterial strains (5, 5 and 6 out of 13 strains, respectively).
# [4] = test system: Streptococcus dysgalactiae (Sd); assay type: cell-based
# Method: as §1
# [5] = test system: Streptococcus uberis (Su); assay type: cell-based
# Method: as §1
# [6] = test system: Staphylococcus epidermidis (Se); assay type: cell-based
# Method: as §1
# [7] = test system: Bordatella bronchiseptica (Bb); assay type: cell-based
# Method: as §1
# Histophilus somnus (Hs) [8] = assay type: cell-based
# Method: as §1
# [9] = test system: Pseudomonas aeruginosa (Pa); assay type: cell-based
# Method: as §1
# [10] = test system: Pasteurella multocida (Pm); assay type: cell-based
# Method: as §1
# [11] = test system: Mannheimia haemolytica (Mh); assay type: cell-based
# Method: as §1
# [12] = test system: Staphylococcus pseudintermedius (Sp); assay type: cell-based
# Method: as §1
# Streptococcus suis (Ss) [13] = assay type: cell-based
# Method: as §1
# E. coli (Ec) [14] = assay type: cell-based; details: Ec
# E. coli (Ec) [15] = assay type: cell-based; details: Ec; remark: listed apart in the source
# Method: as §1
# (§2) In addition, several peptides expressed preferential activity vs. biofilms (MBIC) cf. planktonic cells (MIC) (Table 20).
# S. aureus (Sau) [16] = assay type: cell-based; details: Sau
# Method: as §1, §2
# [17] = test system: Streptococcus agalactiae (Sa); assay type: cell-based; remark: listed apart in the source
# Method: (§3) The following strains were assessed vs. Staphylococcus epidermidis (Se), Pseudomonas aeruginosa (Pa), Streptococcus dysgalactiae (Sd), Pasteurella multocida (Pm), Streptococcus agalactiae (Sa), Streptococcus uberis (Su), Streptococcus suis (Ss), Mannheimia haemolytica (Mh), Bordatella bronchiseptica (Bb), Histophilus somnus (Hs), and Staphylococcus pseudintermedius (Sp) (Table 18) for Minimal Inhibitory Concentrations (MIC). Italics=excellent activity (less than or equal to 4 μg/ml).
# [18] = test system: Streptococcus dysgalactiae (Sd); assay type: cell-based; remark: listed apart in the source
# Method: as §3
# [19] = test system: Streptococcus uberis (Su); assay type: cell-based; remark: listed apart in the source
# Method: as §3
# [20] = test system: Staphylococcus epidermidis (Se); assay type: cell-based; remark: listed apart in the source
# Method: as §3
# [21] = test system: Bordatella bronchiseptica (Bb); assay type: cell-based; remark: listed apart in the source
# Method: as §3
# Histophilus somnus (Hs) [22] = assay type: cell-based; remark: listed apart in the source
# Method: as §3
# [23] = test system: Pseudomonas aeruginosa (Pa); assay type: cell-based; remark: listed apart in the source
# Method: as §3
# [24] = test system: Pasteurella multocida (Pm); assay type: cell-based; remark: listed apart in the source
# Method: as §3
# [25] = test system: Mannheimia haemolytica (Mh); assay type: cell-based; remark: listed apart in the source
# Method: as §3
# [26] = test system: Staphylococcus pseudintermedius (Sp); assay type: cell-based; remark: listed apart in the source
# Method: as §3
# Streptococcus suis (Ss) [27] = assay type: cell-based; remark: listed apart in the source
# Method: as §3
# PBMCs = assay: Cytotoxicity towards PBMCs, lactate dehydrogenase (LDH) release assay (Tables 6, 7); details: SPOT synthesized peptide ~25 μM, PBMCs from 3 human donors; Table 6
# S. aureus (Sau) [28] = assay type: cell-based; details: Sau; remark: listed apart in the source
# [29] = test system: planktonic methicillin resistant S. aureus; assay: microbe, parasite or virus in culture; assay type: cell-based, Staphylococcus aureus; details: planktonic methicillin resistant
substance,measurement,setting,value
"IWLRLKVVLKRK (not fully specified; also: D-amino acid(s), positions not given here) [Peptide D-3006]","peptide concentration that inhibited more than 90% of adhered biofilm biomass, S. aureus (C623)",[1],4 µM
same,"peptide concentration that inhibited more than 90% of adhered biofilm biomass, E. coli (O157:H7)",E. coli O157:H7,2 µM
same,"peptide concentration that inhibited more than 90% of adhered biofilm biomass, S. typhimurium (ATCC 14028)",[2],2 µM
same,"peptide concentration that inhibited more than 90% of adhered biofilm biomass, P. aeruginosa (PAO1)",P. aeruginosa (PAO1),2 µM
"RRWIRVAVILRV ([dR][dR][dW][dI][dR][dV][dA][dV][dI][dL][dR][dV]) [RI-1018, reference compound]","peptide concentration that inhibited more than 90% of adhered biofilm biomass, S. aureus (C623)",[1],8 µM
same,"peptide concentration that inhibited more than 90% of adhered biofilm biomass, E. coli (O157:H7)",E. coli O157:H7,1 µM
same,"peptide concentration that inhibited more than 90% of adhered biofilm biomass, S. typhimurium (ATCC 14028)",[2],2 µM
same,"peptide concentration that inhibited more than 90% of adhered biofilm biomass, P. aeruginosa (PAO1)",P. aeruginosa (PAO1),4 µM
KVVWIKVKIKLV ([dK][dV][dV][dW][dI][dK][dV][dK][dI][dK][dL][dV]) [RI-3007],"peptide concentration that inhibited more than 90% of adhered biofilm biomass, S. aureus (C623)",[1],16 µM
same,"peptide concentration that inhibited more than 90% of adhered biofilm biomass, E. coli (O157:H7)",E. coli O157:H7,16 µM
same,"peptide concentration that inhibited more than 90% of adhered biofilm biomass, S. typhimurium (ATCC 14028)",[2],16 µM
same,"peptide concentration that inhibited more than 90% of adhered biofilm biomass, P. aeruginosa (PAO1)",P. aeruginosa (PAO1),32 µM
KRKLVVKLRLWI ([dK][dR][dK][dL][dV][dV][dK][dL][dR][dL][dW][dI]) [RI-3006],"peptide concentration that inhibited more than 90% of adhered biofilm biomass, S. aureus (C623)",[1],8 µM
same,"peptide concentration that inhibited more than 90% of adhered biofilm biomass, E. coli (O157:H7)",E. coli O157:H7,4 µM
same,"peptide concentration that inhibited more than 90% of adhered biofilm biomass, S. typhimurium (ATCC 14028)",[2],4 µM
same,"peptide concentration that inhibited more than 90% of adhered biofilm biomass, P. aeruginosa (PAO1)",P. aeruginosa (PAO1),4 µM
"AVKWLGWILAKK-NH2 [Peptide 3016, AVKWLGWILAKK]",MBIC,[3],64 µg/mL
same,MBIC,[4],>64 µg/mL
same,MBIC,[5],8 µg/mL
same,MBIC,[6],4 µg/mL
same,MBIC,[7],64 µg/mL
same,MBIC,Histophilus somnus (Hs) [8],4 µg/mL
same,MBIC,[9],32 µg/mL
same,MBIC,[10],8 µg/mL
same,MBIC,[11],>64 µg/mL
same,MBIC,[12],8 µg/mL
same,MBIC,Streptococcus suis (Ss) [13],32 µg/mL
same,MIC E. coli,E. coli (Ec) [14],64 µg/mL
same,MIC Ec,E. coli (Ec) [14],64 µg/mL
same,MBIC,E. coli (Ec) [15],32 µg/mL
same,MBIC E. coli,E. coli (Ec) [15],32 µg/mL
same,MBIC,S. aureus (Sau) [16],4 µg/mL
same,MBIC S. aureus,S. aureus (Sau) [16],4 µg/mL
same,MIC Sa,[17],8 µg/mL
same,MIC Sd,[18],>64 µg/mL
same,MIC Su,[19],16 µg/mL
same,MIC Se,[20],>64 µg/mL
same,MIC Bb,[21],64 µg/mL
same,MIC Hs,Histophilus somnus (Hs) [22],16 µg/mL
same,MIC Pa,[23],>64 µg/mL
same,MIC Pm,[24],>64 µg/mL
same,MIC Mh,[25],>64 µg/mL
same,MIC Sp,[26],8 µg/mL
same,MIC Ss,Streptococcus suis (Ss) [27],32 µg/mL
same,% Toxicity (LDH Release),PBMCs,0.8%
same,MIC S. aureus,S. aureus (Sau) [28],>64 µg/mL
same,MIC Sau,S. aureus (Sau) [28],>64 µg/mL
same,MIC (μM) MHB,[29],>64 µM
same,MIC (μM) TSB with 1% Glucose,[29],>64 µM
"LAGLIVKWAGVR-NH2 [Peptide 3017, LAGLIVKWAGVR]",MBIC,[3],>64 µg/mL
same,MBIC,[4],>64 µg/mL
same,MBIC,[5],16 µg/mL
same,MBIC,[6],>64 µg/mL
same,MBIC,[7],>64 µg/mL
same,MBIC,Histophilus somnus (Hs) [8],32 µg/mL
same,MBIC,[9],>64 µg/mL
same,MBIC,[10],>64 µg/mL
same,MBIC,[11],>64 µg/mL
same,MBIC,[12],64 µg/mL
same,MBIC,Streptococcus suis (Ss) [13],>64 µg/mL
same,MIC E. coli,E. coli (Ec) [14],>64 µg/mL
same,MIC Ec,E. coli (Ec) [14],>64 µg/mL
same,MBIC,E. coli (Ec) [15],>64 µg/mL
same,MBIC E. coli,E. coli (Ec) [15],>64 µg/mL
same,MBIC,S. aureus (Sau) [16],4 µg/mL
same,MBIC S. aureus,S. aureus (Sau) [16],4 µg/mL
same,MIC Sa,[17],32 µg/mL
same,MIC Sd,[18],>64 µg/mL
same,MIC Su,[19],64 µg/mL
same,MIC Se,[20],>64 µg/mL
same,MIC Bb,[21],>64 µg/mL
same,MIC Hs,Histophilus somnus (Hs) [22],>64 µg/mL
same,MIC Pa,[23],>64 µg/mL
same,MIC Pm,[24],>64 µg/mL
same,MIC Mh,[25],>64 µg/mL
same,MIC Sp,[26],>64 µg/mL
same,MIC Ss,Streptococcus suis (Ss) [27],>64 µg/mL
same,% Toxicity (LDH Release),PBMCs,5.9%
same,MIC S. aureus,S. aureus (Sau) [28],>64 µg/mL
same,MIC Sau,S. aureus (Sau) [28],>64 µg/mL
same,MIC (μM) MHB,[29],>64 µM
same,MIC (μM) TSB with 1% Glucose,[29],>64 µM
"VLKIKVKIWVVK (not fully specified; also: D-amino acid(s), positions not given here) [Peptide D-3007]","peptide concentration that inhibited more than 90% of adhered biofilm biomass, S. aureus (C623)",[1],8 µM
same,"peptide concentration that inhibited more than 90% of adhered biofilm biomass, E. coli (O157:H7)",E. coli O157:H7,4 µM
same,"peptide concentration that inhibited more than 90% of adhered biofilm biomass, S. typhimurium (ATCC 14028)",[2],4 µM
same,"peptide concentration that inhibited more than 90% of adhered biofilm biomass, P. aeruginosa (PAO1)",P. aeruginosa (PAO1),8 µM
